According to article PMC7708446, “^18F-meta-fluorobenzylguanidine (^18F-mFBG) to monitor changes in norepinephrine transporter expression in response to therapeutic intervention in neuroblastoma models” (Scientific Reports, 2020):
Marks after values point to notes of the source that are not given here.

Tested on: SK-N-BE(2)C xenografts
Assay: Ex vivo biodistribution (γ-counter), mice bearing SK-N-BE(2)C xenografts
Type: in vivo
Conditions: SK-N-BE(2)C
Description: All studies were conducted in compliance with licenses issued under the UK Animals (Scientific Procedures) Act 1986 and approved by the Institute of Cancer Research Animal Welfare and Ethical Review Body (AWERB) according to the United Kingdom National Cancer Research Institute Guidelines for Animal Welfare in Cancer Research (project license PCC916B22, Animals in Science Regulation Unit, Home Office Science, London, UK)[65]. Female Nu(NCr)-Foxn1nu mice (5–7 weeks; 20–22 g) obtained from an in-house breeding colony were used in the studies. Animals were housed in a temperature-controlled facility with 12 h on–12 h off light cycle and provided water and laboratory rodent food ad libitum. Subcutaneous xenografts were generated by injection of either Kelly (5 × 10^6/0.1 mL PBS/Matrigel 30% v/v; BD Matrigel Matrix, BD Bioscience, San Jose, California, US) or SK-N-BE(2)C (1 × 10^6/0.1 mL PBS/Matrigel) into the lower flank. For the treatment studies, AZD2014 stock solution in DMSO was diluted in PEG400 to a final concentration of 2 mg/mL (10% DMSO maximum). When tumours reached ~ 100 mm^3 (calliper measurements using formula: Volume = (Width(2) × Length)/2), mice were treated daily, for a total of either 1, 3 or 7 days, by oral gavage with AZD2014 (20 or 25 mg/kg/day) or vehicle control. Mice were monitored daily for body weight or other adverse effects.
When the tumours reached approximately 100–200 mm^3, mice were anaesthetised with an isoflurane/O2 mixture (1.5–2.0% v/v) and intravenously injected with either ^18F-mFBG (~ 7.5 MBq) or ^123I-mIBG (~ 20 MBq). Mice were then imaged using an Albira PET/SPECT/CT scanner (Bruker, Coventry, UK). Whole body PET static images were acquired after 1 and 4 h post-injection (p.i.) for 10 min with an energy window of 358 to 664 keV followed by CT acquisition. Acquisition, reconstruction and image analysis were performed as described previously. Following the final scan, the mice were sacrificed and the major organs were excised, weighed and their associated radioactivity was measured using a γ-counter. Biodistribution and image quantification were expressed as a percentage of injected dose per gram of tissue (%ID/g), whereby 1 cm^3 on PET acquisitions were assumed to equal 1 g (n ≥ 3 mice ± SD).

## N=C(N)NCc1cccc([18F])c1 [^18F-mFBG, ^18F-meta-fluorobenzylguanidine]
1 day vehicle
  ^18F-mFBG biodistribution 4 h p.i., Tumour: 2.76 ± 1.14 %ID/g
  ^18F-mFBG biodistribution 4 h p.i., Tumour:blood: 15.27 ± 5.32
  ^18F-mFBG biodistribution 4 h p.i., Tumour:muscle: 4.44 ± 0.94
3 day vehicle
  ^18F-mFBG biodistribution 4 h p.i., Blood: 0.18 ± 0.08 %ID/g
  ^18F-mFBG biodistribution 4 h p.i., Bone: 1.64 ± 0.45 %ID/g
  ^18F-mFBG biodistribution 4 h p.i., Brown adipose: 5.15 ± 0.78^b %ID/g
  ^18F-mFBG biodistribution 4 h p.i., Heart: 3.64 ± 0.89 %ID/g
  ^18F-mFBG biodistribution 4 h p.i., Kidney: 1.13 ± 0.47 %ID/g
  ^18F-mFBG biodistribution 4 h p.i., Liver: 1.96 ± 0.02 %ID/g
  ^18F-mFBG biodistribution 4 h p.i., Lungs: 1.15 ± 0.23 %ID/g
  ^18F-mFBG biodistribution 4 h p.i., Muscle: 0.53 ± 0.19 %ID/g
  ^18F-mFBG biodistribution 4 h p.i., Pancreas: 1.25 ± 0.51 %ID/g
  ^18F-mFBG biodistribution 4 h p.i., Small intestine: 5.32 ± 0.11 %ID/g
  ^18F-mFBG biodistribution 4 h p.i., Spleen: 2.08 ± 1.29 %ID/g
  ^18F-mFBG biodistribution 4 h p.i., Tumour: 2.39 ± 0.10 %ID/g
  ^18F-mFBG biodistribution 4 h p.i., Tumour:blood: 14.47 ± 4.61
  ^18F-mFBG biodistribution 4 h p.i., Tumour:muscle: 4.89 ± 1.48
7 day AZD2014 (20 mg/kg/day)
  ^18F-mFBG biodistribution 4 h p.i., Blood: 0.32 ± 0.14 %ID/g
  ^18F-mFBG biodistribution 4 h p.i., Bone: 0.63 ± 0.54 %ID/g
  ^18F-mFBG biodistribution 4 h p.i., Brown adipose: 8.08 ± 0.72 %ID/g
  ^18F-mFBG biodistribution 4 h p.i., Heart: 4.17 ± 1.63 %ID/g
  ^18F-mFBG biodistribution 4 h p.i., Kidney: 1.02 ± 0.15 %ID/g
  ^18F-mFBG biodistribution 4 h p.i., Liver: 2.64 ± 0.46 %ID/g
  ^18F-mFBG biodistribution 4 h p.i., Lungs: 1.33 ± 0.36 %ID/g
  ^18F-mFBG biodistribution 4 h p.i., Muscle: 0.75 ± 0.02 %ID/g
  ^18F-mFBG biodistribution 4 h p.i., Pancreas: 3.08 ± 1.80 %ID/g
  ^18F-mFBG biodistribution 4 h p.i., Small intestine: 6.87 ± 1.86 %ID/g
  ^18F-mFBG biodistribution 4 h p.i., Spleen: 1.64 ± 0.46 %ID/g
  ^18F-mFBG biodistribution 4 h p.i., Tumour: 2.61 ± 1.19 %ID/g
  ^18F-mFBG biodistribution 4 h p.i., Tumour:blood: 8.06 ± 2.57
  ^18F-mFBG biodistribution 4 h p.i., Tumour:muscle: 3.50 ± 1.62
7 day vehicle
  ^18F-mFBG biodistribution 4 h p.i., Blood: 0.17 ± 0.06 %ID/g
  ^18F-mFBG biodistribution 4 h p.i., Bone: 1.13 ± 0.20 %ID/g
  ^18F-mFBG biodistribution 4 h p.i., Brown adipose: 6.08 ± 2.45 %ID/g
  ^18F-mFBG biodistribution 4 h p.i., Heart: 5.87 ± 2.80 %ID/g
  ^18F-mFBG biodistribution 4 h p.i., Kidney: 1.09 ± 0.16 %ID/g
  ^18F-mFBG biodistribution 4 h p.i., Liver: 2.15 ± 0.30 %ID/g
  ^18F-mFBG biodistribution 4 h p.i., Lungs: 1.86 ± 0.64 %ID/g
  ^18F-mFBG biodistribution 4 h p.i., Muscle: 0.67 ± 0.07 %ID/g
  ^18F-mFBG biodistribution 4 h p.i., Pancreas: 2.81 ± 1.72 %ID/g
  ^18F-mFBG biodistribution 4 h p.i., Small intestine: 6.22 ± 0.35 %ID/g
  ^18F-mFBG biodistribution 4 h p.i., Spleen: 1.75 ± 0.67 %ID/g
  ^18F-mFBG biodistribution 4 h p.i., Tumour: 2.17 ± 1.01 %ID/g
  ^18F-mFBG biodistribution 4 h p.i., Tumour:blood: 15.55 ± 13.55
  ^18F-mFBG biodistribution 4 h p.i., Tumour:muscle: 3.36 ± 1.90
